Assay: Absorbance at photostationary state (PSS) under simulated sunlight or 365 nm light
Type: physicochemical
Design: λ max: unit not given here
Details: for Absorbance at PSS, 365 nm: 365 nm light source; for Absorbance at PSS, 365 nm / Absorbance at PSS, full / Absorbance at PSS, +UV / λ max: 2.0×10^−5 M in triglyme; for sensitivity index: ratio of PSS under 365 nm light to PSS under full spectrum light (without UV blocking film); for Absorbance at PSS, full: simulated sunlight (QSUN solar simulator), no UV blocking film; for Absorbance at PSS, +UV: simulated sunlight with UV blocking film (cutoff 370 nm); for λ max: wavelength of maximum absorbance in the visible range, ring-closed isoform
Protocol: Absorbance at a PSS for selected compounds was measured at 2.0×10^−5 M in triglyme in the absence (full) or presence (+UV) of a UV blocking film with a UV cutoff wavelength of 370 nm (10% transmission at 370 nm), using simulated sunlight (QSUN solar simulator) as a light source, or a 365 nm light source; these PSS are reported in Tables 1.5. […] “Switch” refers to the ability (yes or no) of the compound to be reversibly converted under photochromic and electrochromic conditions between a ring-open isomer and ring-closed isomer.
A sensitivity index (SI) is a ratio of the PSS under 365 nm light to the PSS under full spectrum light (without UV blocking film). SI is an indicator of the sensitivity of the compound to the composition of the incident light (a change in the ratio of UV and visible components)—photochemical ring-opening is induced by a portion of the visible light spectrum.
Photostationary State (PSS) UV/Vis spectra are obtained using an OceanOptics™ Spectrophotometer until absorption in the visible region of the spectrum stabilizes. A 2×10^−5M solution of compound in solvent is prepared, and photofaded using visible light until absorption in the visible region of the spectrum stabilizes. The sample is then irradiated with simulated sunlight (QSUN SS-150 Solar Simulator with xenon arc lamp) until the absorption spectrum stabilizes. To obtain PSS in the presence of a UV blocking film, a second sample is prepared and irradiated as described, with a UV blocking film inserted in the light path when irradiating.

Compound | Absorbance at PSS, 365 nm | sensitivity index | Absorbance at PSS, full | Absorbance at PSS, +UV | λ max
COc1ccc(-c2cc(C3=C(c4cc(-c5ccc(OC)cc5)sc4-c4ccc(C#N)cc4)C(F)(F)C(F)(F)C3(F)F)c(-c3ccc(C#N)cc3)s2)cc1 [S086, 4,4′-(3,3′-(perfluorocyclopent-1-ene-1,2-diyl)bis(5-(4-methoxyphenyl)thiophene-3,2-diyl))dibenzonitrile] | 0.231 | 2.01 | 0.115 | 0.071 | 610
COc1ccc(-c2cc(C3=C(c4cc(-c5ccc(C#N)cc5)sc4-c4ccc(OC)cc4)C(F)(F)C(F)(F)C3(F)F)c(-c3ccc(C#N)cc3)s2)cc1 [S087, 4-(3-(2-(5-(4-cyanophenyl)-2-(4-methoxyphenyl)thiophen-3-yl)-3,3,4,4,5,5-hexafluorocyclopent-1-en-1-yl)-5-(4-methoxyphenyl)thiophen-2-yl)benzonitrile] | 0.209 | 1.92 | 0.109 | 0.055 | 628
COc1ccc(-c2sc(-c3ccc(/C=C/c4ccccc4)cc3)cc2C2=C(c3cc(-c4ccc(/C=C/c5ccccc5)cc4)sc3-c3ccc(OC)cc3)C(F)(F)C(F)(F)C2(F)F)cc1 [S088, (E)-3,3′-(perfluorocyclopent-1-ene-1,2-diyl)bis(2-(4-methoxyphenyl)-5-(4-((E)-styryl)phenyl)thiophene)] | 0.457 | 2.26 | 0.202 | 0.132 | 656
COc1ccc(-c2sc(-c3ccc(/C=C/C=C/c4ccccc4)cc3)cc2C2=C(c3cc(-c4ccc(/C=C/C=C/c5ccccc5)cc4)sc3-c3ccc(OC)cc3)C(F)(F)C(F)(F)C2(F)F)cc1 [S089, 3,3′-(perfluorocyclopent-1-ene-1,2-diyl)bis(2-(4-methoxyphenyl)-5-(4-((1E,3E)-4-phenylbuta-1,3-dien-1-yl)phenyl)thiophene)] | 0.564 | 4.12 | 0.137 | 0.126 | 656
COc1ccc(-c2sc(-c3ccc(OCCOc4ccc(N(c5ccc(Cl)cc5)c5ccc(Cl)cc5)cc4)cc3)cc2C2=C(c3cc(-c4ccc(OCCOc5ccc(N(c6ccc(Cl)cc6)c6ccc(Cl)cc6)cc5)cc4)sc3-c3ccc(OC)cc3)C(F)(F)C(F)(F)C2(F)F)cc1 [S090, 4,4′-(((((4,4′-(perfluorocyclopent-1-ene-1,2-diyl)bis(5-(4-methoxyphenyl)thiophene-4,2-diyl))bis(4,1-phenylene))bis(oxy))bis(ethane-2,1-diyl))bis(oxy))bis(N,N-bis(4-chlorophenyl)aniline)] | 0.183 | 1.71 | 0.107 | 0.058 | 624
CCOc1ccc(-c2cc(C3=C(c4cc(-c5ccc(OCC)cc5)sc4-c4ccc(OCC)cc4)C(F)(F)C(F)(F)C3(F)F)c(-c3ccc(OCC)cc3)s2)cc1 [S091, 3,3′-(perfluorocyclopent-1-ene-1,2-diyl)bis(2,5-bis(4-ethoxyphenyl)thiophene)] | 0.287 | 1.75 | 0.164 | 0.095 | 629
CC(C)Oc1ccc(-c2cc(C3=C(c4cc(-c5ccc(OC(C)C)cc5)sc4-c4ccc(OC(C)C)cc4)C(F)(F)C(F)(F)C3(F)F)c(-c3ccc(OC(C)C)cc3)s2)cc1 [S092, 3,3′-(perfluorocyclopent-1-ene-1,2-diyl)bis(2,5-bis(4-isopropoxyphenyl)thiophene)] | 0.307 | 1.90 | 0.162 | 0.093 | 627
CC(C)(C)COc1ccc(-c2cc(C3=C(c4cc(-c5ccc(OCC(C)(C)C)cc5)sc4-c4ccc(OCC(C)(C)C)cc4)C(F)(F)C(F)(F)C3(F)F)c(-c3ccc(OCC(C)(C)C)cc3)s2)cc1 [S095, 3,3′-(perfluorocyclopent-1-ene-1,2-diyl)bis(2,5-bis(4-(neopentyloxy)phenyl)thiophene)] | 0.279 | 1.74 | 0.16 | 0.086 | 625
COc1cc(OC)cc(-c2cc(C3=C(c4cc(-c5cc(OC)cc(OC)c5)sc4-c4cc(OC)cc(OC)c4)C(F)(F)C(F)(F)C3(F)F)c(-c3cc(OC)cc(OC)c3)s2)c1 [S097, 3,3′-(perfluorocyclopent-1-ene-1,2-diyl)bis(2,5-bis(3,5-dimethoxyphenyl)thiophene)] | 0.206 | 2.82 | 0.073 | 0.029 | 611
COCCOc1ccc(-c2sc(-c3ccc(C(C)(C)C)s3)cc2C2=C(c3cc(-c4ccc(C(C)(C)C)s4)sc3-c3ccc(OCCOC)cc3)C(F)(F)C(F)(F)C2(F)F)cc1 [S104, 4,4″-(perfluorocyclopent-1-ene-1,2-diyl)bis(5′-(tert-butyl)-5-(4-(2-methoxyethoxy)phenyl)-2,2′-bithiophene)] | 0.383 | 1.28 | 0.299 | 0.203 | 645
CC(C)(C)c1ccc(-c2cc(C3=C(c4cc(-c5ccc(C(C)(C)C)s5)sc4-c4ccc(O)cc4)C(F)(F)C(F)(F)C3(F)F)c(-c3ccc(O)cc3)s2)s1 [S105, 4,4′-(4,4″-(perfluorocyclopent-1-ene-1,2-diyl)bis(5′-(tert-butyl)-[2,2′-bithiophene]-5,4-diyl))diphenol] | 0.272 | 1.38 | 0.197 | 0.134 | 647
COc1ccc(-c2sc(-c3cc4ccccc4s3)cc2C2=C(c3cc(-c4cc5ccccc5s4)sc3-c3ccc(OC)cc3)C(F)(F)C(F)(F)C2(F)F)cc1 [S110, 2,2′-(4,4′-(perfluorocyclopent-1-ene-1,2-diyl)bis(5-(4-methoxyphenyl)thiophene-4,2-diyl))bis(benzo[b]thiophene)] | 0.414 | 1.20 | 0.346 | 0.221 | 653
CC(C)(C)c1ccc(-c2cc(C3=C(c4cc(-c5ccc(C(C)(C)C)s5)sc4-c4ccc(OCCCO)cc4)C(F)(F)C(F)(F)C3(F)F)c(-c3ccc(OCCCO)cc3)s2)s1 [S111, 3,3′-(4,4′-(4,4′-(perfluorocyclopent-1-ene-1,2-diyl)bis(5′-tert-butyl-2,2′-bithiophene-5,4-diyl))bis(4,1-phenylene)bis(oxy))dipropan-1-ol] | 0.322 | 1.10 | 0.292 | 0.192 | 646
CC(C)(C)c1ccc(-c2cc(C3=C(c4cc(-c5ccc(C(C)(C)C)s5)sc4-c4ccc(N5CCOCC5)cc4)C(F)(F)C(F)(F)C3(F)F)c(-c3ccc(N4CCOCC4)cc3)s2)s1 [S112, 4,4′-((4,4″-(perfluorocyclopent-1-ene-1,2-diyl)bis(5′-(tert-butyl)-[2,2′-bithiophene]-5,4-diyl))bis(4,1-phenylene))dimorpholine] | 0.318 | 1.14 | 0.278 | 0.246 | 663
CC(C)(C)c1ccc(-c2cc(C3=C(c4cc(-c5ccc(C(C)(C)C)s5)sc4-c4ccc(O[Si](O[Si](C)(C)C)(O[Si](C)(C)C)O[Si](C)(C)C)cc4)C(F)(F)C(F)(F)C3(F)F)c(-c3ccc(O[Si](O[Si](C)(C)C)(O[Si](C)(C)C)O[Si](C)(C)C)cc3)s2)s1 [S118] | 0.34 | 1.52 | 0.223 | 0.124 | 648
CC(C)(C)c1ccc(-c2cc(C3=C(c4cc(-c5ccc(C(C)(C)C)s5)sc4-c4ccc(C(=O)O)s4)C(F)(F)C(F)(F)C3(F)F)c(-c3ccc(C(=O)O)s3)s2)s1 [S119] | 0.405 |  | 0.343 | 0.295 | 
CC(C)(C)c1ccc(-c2cc(C3=C(c4cc(-c5sc(C(C)(C)C)cc5C(=O)O)sc4-c4ccc(C(=O)O)s4)C(F)(F)C(F)(F)C3(F)F)c(-c3ccc(C(=O)O)s3)s2)s1 [S124] | 0.344 | 1.38 | 0.249 | 0.225 | 649
C[Si](C)(C)c1ccc(-c2cc(C3=C(c4cc(-c5ccc([Si](C)(C)C)s5)sc4-c4ccc([Si](C)(C)C)s4)C(F)(F)C(F)(F)C3(F)F)c(-c3ccc([Si](C)(C)C)s3)s2)s1 [S135, 3′,3″″-(perfluorocyclopent-1-ene-1,2-diyl)bis(5,5″-bis(trimethylsilyl)-2,2′:5′,2″-terthiophene)] | 0.387 | 1.22 | 0.318 | 0.224 | 648
